Columns and labels:
[1] = 298.15 K; 101.33 kPa; Liquid
[2] = refractive index (Na D-line) (dimensionless); settings: 298.15 K; 101.33 kPa; Liquid; Standard Abbe refractometry
[3] = xn = mol fraction of the nth substance listed; settings: 101 kPa, Liquid

Cc1cccc(C)c1 [1,3-dimethylbenzene]
Settings	mass density [kg/m3]	refractive index
[1]	859.83	–
[2]	–	1.4973

CN(C)C=O [dimethylformamide]
Settings	mass density [kg/m3]	refractive index
[1]	943.85	–
[2]	–	1.4307

Cc1ccc(C)cc1 [1,4-dimethylbenzene]
Settings	mass density [kg/m3]	refractive index
[1]	856.58	–
[2]	–	1.4958

Cc1ccccc1C [1,2-dimethylbenzene]
Settings	mass density [kg/m3]	refractive index
[1]	875.73	–
[2]	–	1.5057

Cc1ccc(C)cc1 [1,4-dimethylbenzene] + CN(C)C=O
[3]
Settings	mass density [kg/m3]
293.15 K, x1 = 0.0562	941.87
293.15 K, x1 = 0.1211	934.47
293.15 K, x1 = 0.1885	927.18
293.15 K, x1 = 0.2532	920.51
293.15 K, x1 = 0.3225	913.72
293.15 K, x1 = 0.3865	907.74
293.15 K, x1 = 0.4525	901.85
293.15 K, x1 = 0.5121	896.75
293.15 K, x1 = 0.5853	890.75
293.15 K, x1 = 0.6441	886.12
293.15 K, x1 = 0.7154	880.72
293.15 K, x1 = 0.7664	876.98
293.15 K, x1 = 0.8353	872.08
293.15 K, x1 = 0.8901	868.29
293.15 K, x1 = 0.9577	863.74
303.15 K, x1 = 0.0625	931.96
303.15 K, x1 = 0.1321	924.04
303.15 K, x1 = 0.1912	917.66
303.15 K, x1 = 0.2684	909.75
303.15 K, x1 = 0.3325	903.53
303.15 K, x1 = 0.3965	897.61
303.15 K, x1 = 0.4584	892.15
303.15 K, x1 = 0.5214	886.82
303.15 K, x1 = 0.5853	881.64
303.15 K, x1 = 0.6485	876.73
303.15 K, x1 = 0.7112	872.04
303.15 K, x1 = 0.7866	866.61
303.15 K, x1 = 0.8415	862.79
303.15 K, x1 = 0.9054	858.48
303.15 K, x1 = 0.9658	854.51
313.15 K, x1 = 0.0455	924.59
313.15 K, x1 = 0.1112	916.97
313.15 K, x1 = 0.1862	908.77
313.15 K, x1 = 0.2562	901.56
313.15 K, x1 = 0.3215	895.19
313.15 K, x1 = 0.3952	888.37
313.15 K, x1 = 0.4514	883.43
313.15 K, x1 = 0.5111	878.4
313.15 K, x1 = 0.5841	872.52
313.15 K, x1 = 0.6451	867.83
313.15 K, x1 = 0.7124	862.86
313.15 K, x1 = 0.7854	857.69
313.15 K, x1 = 0.8451	853.61
313.15 K, x1 = 0.9011	849.9
313.15 K, x1 = 0.9655	845.75

Reference: the NIST ThermoML archive (doi:10.1016/j.jct.2006.07.017)
